Experimental data reported in patent US4153692A, “Acylated imidazolyl-O,N-acetals, their pharmaceutically acceptable salts and metal complexes” (Bayer Aktiengesellschaft, priority 1976, dated 1979).
Converted amounts (≈) assume the structure as drawn.

Experiments:
[1] = tested on: Trichophyton mentagrophytes; test: Antimycotic in vitro activity (series dilution test, MIC); type: cell-based; conditions: Sabouraud's milieu d'epreuve, 28° C., 24 to 96 hours, 5 × 10^4 germs/ml, read-out: MIC values in γ/ml of nutrient medium with Trichophyton mentagrophytes
Method: (§1) Antimycotic in vitro activity Description of the experiment The in vitro tests were carried out in a series dilution test using germ inocula with an average of 5 × 10^4 germs/ml of substrate. The nutrient medium used was a) for dermatophytes and molds: Sabouraud's milieu d'epreuve and b) for yeasts: meat extract/glucose broth. The incubation temperature was 28° C. and the incubation time was 24 to 96 hours.

Penicillium commune = test: as above; type: cell-based; conditions: Sabouraud's milieu d'epreuve, 28° C., 24 to 96 hours, 5 × 10^4 germs/ml, read-out: MIC values in γ/ml of nutrient medium with Penicillium commune
Method: as §1

Candida albicans = test: as above; type: cell-based; conditions: meat extract/glucose broth, 28° C., 24 to 96 hours, 5 × 10^4 germs/ml, read-out: MIC values in γ/ml of nutrient medium with Candida albicans
Method: as §1

Aspergillus niger = test: as above; type: cell-based; conditions: Sabouraud's milieu d'epreuve, 28° C., 24 to 96 hours, 5 × 10^4 germs/ml, read-out: MIC values in γ/ml of nutrient medium with Aspergillus niger
Method: as §1

Microsporum felinum = test: as above; type: cell-based; conditions: Sabouraud's milieu d'epreuve, 28° C., 24 to 96 hours, 5 × 10^4 germs/ml, read-out: MIC values in γ/ml of nutrient medium with Microsporum felinum
Method: as §1

Candida cells = test: Antimycotic in vivo activity on candidosis in mice; set-up: species or system mice of the SPF-CF1 type; conditions: mice infected i.v. with Candida; 100 mg/kg orally one hour before and seven hours after infection; untreated survival about 5%
Method: antimycotic in vivo activity on candidosis in mice Description of the experiment Mice of the SPF-CF1 type were infected intravenously with 1-2 × 10^6 logarithmically-growing Candida cells, which were suspended in physiological sodium chloride solution. One hour before and seven hours after the infection the animals were treated orally with, in each case, 100 mg of the formulations per kg of body weight. Untreated animals died of the infection 3 to 6 days after infection. The survival rate on the 6th day after infection was about 5% in the case of the untreated control animals

MIC [1] [µg/mL] | MIC (Penicillium commune) [µg/mL] | MIC (Candida albicans) [µg/mL] | MIC (Aspergillus niger) [µg/mL] | MIC (Microsporum felinum) [µg/mL] | SMILES | Action (survivors on the 6th day after infection) (Candida cells)
32 (≈ 101 µM) | > 64 | 64 (≈ 202 µM) |  |  | CC(C)(C)c1ccc(OC(C(O)C(C)(C)C)n2ccnc2)cc1 (stereo not shown) | 
32 (≈ 123 µM) | > 64 | 32 (≈ 123 µM) | > 64 | > 64 | CC(C)(C)C(O)C(Oc1ccccc1)n1ccnc1 (stereo not shown) | 
< 1 | 8 (≈ 21.1 µM) | 64 (≈ 169 µM) | < 1 | 8 (≈ 21.1 µM) | CC(=O)OC(C(Oc1ccc(-c2ccccc2)cc1)n1ccnc1)C(C)(C)C (stereo not shown) | 
8 (≈ 20.8 µM) | 32 (≈ 83.2 µM) | 64 (≈ 166 µM) |  |  | CC(=O)OC(C(Oc1ccc(C2CCCCC2)cc1)n1ccnc1)C(C)(C)C (stereo not shown) | 
 |  |  |  |  | CC(=O)OC(C(Oc1ccccc1)n1ccnc1)C(C)(C)C (stereo not shown) | ++ (weak action = ≥ 40% survivors on the 6th day after infection)
 |  |  |  |  | CC(=O)OC(C(Oc1ccc(F)cc1)n1ccnc1)C(C)(C)C (stereo not shown) | +++ (action = ≥ 60% survivors on the 6th day after infection)
64 (≈ 217 µM) | > 64 | 32 (≈ 109 µM) |  |  | CC(C)(C)C(O)C(Oc1cccc(Cl)c1)n1ccnc1 (stereo not shown) [drawing 4] | 
4 (≈ 11.9 µM) | 32 (≈ 95 µM) | 32 (≈ 95 µM) | 64 (≈ 190 µM) | 32 (≈ 95 µM) | CC(=O)OC(C(Oc1ccc(Cl)cc1)n1ccnc1)C(C)(C)C (stereo not shown) [drawing 7] | 
4 (≈ 10.5 µM) | 32 (≈ 83.9 µM) | 64 (≈ 168 µM) | 64 (≈ 168 µM) | 32 (≈ 83.9 µM) | CC(=O)OC(C(Oc1ccc(Br)cc1)n1ccnc1)C(C)(C)C (stereo not shown) [drawing 9] | 
4 (≈ 9.34 µM) | 64 (≈ 149 µM) | 32 (≈ 74.7 µM) | 64 (≈ 149 µM) | 32 (≈ 74.7 µM) | CC(=O)OC(C(Oc1ccc(I)cc1)n1ccnc1)C(C)(C)C (stereo not shown) [drawing 10] | 
< 1 | 64 (≈ 155 µM) | 32 (≈ 77.5 µM) | 64 (≈ 155 µM) | 32 (≈ 77.5 µM) | CC(=O)OC(C(Oc1ccc(-c2ccc(Cl)cc2)cc1)n1ccnc1)C(C)(C)C (stereo not shown) [drawing 11] | 
 |  |  |  |  | CC(C)(C)C(O)C(Oc1cccc(Cl)c1)n1ccnc1 (stereo not shown) [drawing 13] | + (trace action = < 40% survivors on 6th day after infection)
 |  |  |  |  | CC(=O)OC(C(Oc1ccc(Cl)cc1)n1ccnc1)C(C)(C)C (stereo not shown) [drawing 15] | ++++ (good action = ≥ 80% survivors on the 6th day after infectio)
 |  |  |  |  | CC(=O)OC(C(Oc1ccc(Br)cc1)n1ccnc1)C(C)(C)C (stereo not shown) [drawing 16] | ++ (weak action = ≥ 40% survivors on the 6th day after infection)
 |  |  |  |  | CC(=O)OC(C(Oc1ccc(-c2ccc(Cl)cc2)cc1)n1ccnc1)C(C)(C)C (stereo not shown) [drawing 18] | ++++ (good action = ≥ 80% survivors on the 6th day after infectio)
 |  |  |  |  | CC(=O)OC(C(Oc1ccc(I)cc1)n1ccnc1)C(C)(C)C (stereo not shown) [drawing 20] | + (trace action = < 40% survivors on 6th day after infection)
